Experimental data reported in patent publication US20250034161A1, “SPIROCYCLIC COMPOUND AS KRAS-G12C INHIBITOR” (Shanghai Euregen Biopharma Co., Ltd., priority 2020, published 2025).

Assays:
[1] = Pharmacokinetic properties in rats (IV and PO, LC-MS/MS); assay type: in vivo; conditions: for F: SD rats; for AUC(0-inf) / Cmax / clearance / half-life / Vd: male, Sprague-Dawley (SD), rat, plasma; for Vd: read-out: Vz
Description: • 1. Test purpose: to determine the pharmacokinetic characteristics of some of the example compound of the present invention in SD rats after single intravenous injection(IV) and oral administration(PO) by LC-MS/MS method. • 2. […] Animal production license number (SCXK (Shanghai) 2018-0006). • 3. Test method:
Preparation of 0.5% methyl cellulose: 5 g of methyl cellulose were weighed and dissolved in 1000 mL of purified water.
Preparation of oral formulation: A required amount of test compound was weighed and dissolved in 0.5% methyl cellulose solution to obtain a suspension or solution of 0.5 mg/mL.
Preparation of intravenous injection formulation: A required amount of test compound was weighed, and dissolved in 0.5 mL of dimethyl sulfoxide to prepare a solution of 4 mg/mL. 0.25 mL of the above solution was added into 0.5 mL of polyethylene glycol 15 hydroxystearate (solutol) and 4.25 mL of normal saline to obtain a solution of 0.2 mg/mL.
The dosage and volume administered were shown in the table below Feeding, 4 hours after administration
Sample Collection: blood is collected through jugular vein or other suitable vein, and 0.2 mL of blood was collected at each time point. Samples were placed into tubes containing ethylenediaminetetraacetic acid dipotassium salt and kept on ice before centrifugation. Within 1 hour after blood collection, the blood samples were centrifuged at 2-8° C. and 6800 g for 6 minutes and stored at −80° C. The time point for blood collection was 0.083, 0.25, 0.5, 1, 2, 4, 8 and 24 hours after intravenous administration, and 0.25, 0.5, 1, 2, 4, 6, 8 and 24 hours after oral administration.

[2] = Whole blood stability assay, dog whole blood; assay type: in vitro ADME; conditions: 37° C.
Description: • 1. Test purpose: to determine the whole blood stability of the compounds by monitoring the clearance rate of the parent compound after incubation of some of the example compounds of the invention with dog and rat whole blood. • 2. […] Test method:
Then, the stock solution of the test compound was diluted to 1 mmol/L and 0.2 mmol/L with 70% acetonitrile aqueous solution, respectively, as working solution.
The working solution was added to the whole blood. The concentration of each test compound was 5 μmol/L. 90 μL was taken and then mixed evenly with 90 μL of water. Then 600 μL of acetonitrile termination solution containing propranolol as internal standard was added. Incubated at 37° C. in a water bath and shook gently. At 30, 60, 120 and 240 minutes, 90 μL of each mixture was placed on a clean 96-well plate prefilled with 90 μL of water, mixed well, and then 600 μL of acetonitrile termination solution containing propranolol as internal standard was added and centrifuged at 5000 g for 15 min. 80 μL of the supernatant was taken and placed in a 96-well plate preloaded with 160 μL of ultrapure water, then analyzed by LC-MS/MS.

[3] = target: CYP 3A4 (Homo sapiens, UniProt P08684); assay: CYP inhibition test, human liver microsomes, CYP3A4; conditions: IC50(μM)
Description: • 1. Test purpose: to evaluate the inhibitory ability of some of the example compounds of the present invention against CYP1A2, 2B6, 2C8, 2C9, 2C19, 2D6 and 3A4 via human liver microsomes. • 2. […] Test method:
• 1. K/Mg buffer: the components were 0.1 mol/L potassium phosphate and 5 mmol/L magnesium chloride with pH 7.4±0.1, preheated. • 2. Solution of the test compound: the test compound was dissolved in dimethyl sulfoxide to prepare a stock solution of 10 mmol/L. 8 μL of 10 mmol/L stock solution was transferred to a 96-well plate containing 12 μL of acetonitrile as the highest concentration point, at 3-fold dilution, for 8 concentrations. • 3. […] Human liver microsomal stock solution: human liver microsomes were dissolved in 0.1 mol/L K/Mg buffer to obtain 20 mg/mL stock solution. • 5. Human liver microsomal working solution: 10 μL of 20 mg/mL human liver microsomal stock solution was taken and added into 990 μL of 0.1 mol/L K/Mg buffer to prepare 0.2 mg/mL human liver microsomal solution. • 6.
600 μL of 0.2 mg/mL human liver microsomal solution and 3 μL of stepwise diluted test compound solution were added to the 96-well plate. 30 μL of the above solution was added on the 96-well plate followed by the addition of 15 μL of the corresponding substrate solution. The 96-well plate and the NADPH solution were pre-incubated at 37° C. for 5 minutes, and 15 μL of NADPH solution was added to the 96-well plate to start the reaction. The assay plate was incubated at 37° C. for 5 minutes for 3A4, 10 minutes for 1A2, 2B6 and 2C9, 20 minutes for 2C8 and 2D6, and 45 minutes for 2C19. Then the reaction was terminated by 180 μL of acetonitrile containing internal standard substance. After quenching, the plate was shook for 10 minutes (600 rpm/min) and then centrifuged at 6000 rpm for 15 minutes. 80 μL of supernatant was taken from each well and transferred to a 96-well sample plate containing 120 μL of ultrapure water for LC-MS/MS analysis.

[4] = Plasma protein binding assay (equilibrium dialysis), mouse plasma; assay type: in vitro ADME; conditions: pH 7.4, Mice plasma, equilibrium dialysis 5 hours, read-out: Plasma protein binding rate (%) (converted)
Description: • 1. Test purpose: to evaluate the protein binding rate of the test compound in human, dog, monkey, rat and mouse plasma by equilibrium dialysis; • 2. […] Experimental methods: • 0.1 mol/L sodium phosphate and 0.15 mol/L sodium chloride buffer with pH 7.4±0.1 was preheated;
Preparation of plasma containing test substance: the test compound was dissolved in DMSO to prepare a 10 mmol/l stock solution. 5 μL of stock solution was taken and diluted with 95 μL of acetonitrile to obtain solution A (0.5 mmol/L). 8 μL of solution A was taken and diluted with 192 μL of 0.1 mol/L sodium phosphate buffer to obtain solution B (0.02 mmol/L). 570 μL of plasma was added into a 96-well plate followed by the addition of 30 μL of solution B. The final concentration was 1 μmol/L with 0.01% DMSO.
The plate was shook at 600 rpm for 10 minutes, covered and stored in a freezer (−20° C.).
T5 sample preparation (in triplicate): the dialysis device was added with 100 μL of buffer on its receiver side and 100 μL of plasma containing the test compound on its doner side. And the dialysis device was then shook at 37° C. and 120 rpm for 5 hours. At the end of culture, 25 μL of plasma containing the test substance was taken from the plasma side and then added to a 96-well plate, followed by the addition of 25 μL of buffer and 200 μL of acetonitrile solution containing internal standard. […]

[5] = CYP 3 A4-M, substrate midazolam
[6] = CYP 3 A4-T, substrate testosterone

CYP 3A4, sequence (P08684 whole entry): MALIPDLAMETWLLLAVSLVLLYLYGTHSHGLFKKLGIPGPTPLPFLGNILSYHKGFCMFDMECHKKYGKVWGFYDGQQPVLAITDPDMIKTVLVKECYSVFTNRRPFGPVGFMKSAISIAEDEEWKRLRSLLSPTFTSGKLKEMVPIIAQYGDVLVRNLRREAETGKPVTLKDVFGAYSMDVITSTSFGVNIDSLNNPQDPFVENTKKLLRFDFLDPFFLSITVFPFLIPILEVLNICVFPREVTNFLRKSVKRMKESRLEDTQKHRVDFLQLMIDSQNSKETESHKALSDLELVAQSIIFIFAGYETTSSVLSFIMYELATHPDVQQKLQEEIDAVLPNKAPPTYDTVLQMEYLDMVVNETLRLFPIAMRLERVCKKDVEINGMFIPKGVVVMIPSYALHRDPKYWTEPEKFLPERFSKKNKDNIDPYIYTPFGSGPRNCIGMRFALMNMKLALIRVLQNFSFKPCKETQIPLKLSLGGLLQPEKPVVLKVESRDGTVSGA

| SMILES | F ([1]; oral gavage, 5 mg/kg) [%] | AUC(0-inf) ([1]; intravenous injection, 1 mg/kg) [ng·h/mL] | Cmax ([1]; intravenous injection, 1 mg/kg) [ng/mL] | clearance ([1]; intravenous injection, 1 mg/kg) [mL/min/kg] | half-life ([1]; intravenous injection, 1 mg/kg) [h] | Vd ([1]; intravenous injection, 1 mg/kg) [L/kg] | AUC(0-inf) ([1]; oral gavage, 5 mg/kg) [ng·h/mL] | Cmax ([1]; oral gavage, 5 mg/kg) [ng/mL] | half-life ([1]; oral gavage, 5 mg/kg) [h] | half-life at 5 μmol/L [2] [h] | IC50 [3, 5] [µM] | IC50 [3, 6] [µM] | fraction unbound at 5 h, 1 μmol/L [4] |
| --- | --- | --- | --- | --- | --- | --- | --- | --- | --- | --- | --- | --- | --- |
| C=CC(=O)N1CCN(c2nc(=O)n(-c3c(C)ccnc3C(C)C)c3nc(-c4c(O)cccc4F)c(F)cc23)[C@@H](C)C1 [AMG510] | 35.41 | 319 | 762 | 50.7 | 0.36 | 1.57 | 584 | 1260 | 1.81 | 1.46 | 5.07 | > 10 | 0.091 |
| C=C(F)C(=O)N1CCN(c2nc(OC[C@@H]3CCCN3C)nc3c2CCN(c2cccc4cccc(Cl)c24)C3)C[C@@H]1CC#N [MRTX849] | 13.66 | 348 | 137 | 48.1 | 3.16 | 13.1 | 238 | 23.3 | 2.8 | 6.15 | 6.83 | > 10 | 0.004 |
